From patent USRE46943E1, “Radioprotector compounds and methods” (PETER MACCALLUM CANCER INSTITUTE, priority 2010, dated 2018)

What was measured:
[1] = tested on: transformed human keratinocyte cell line (FEP 1811); test: Clonogenic survival cell culture assay for cytotoxicity; type: cell-based; conditions: Homo sapiens, Keratinocyte, light or radiation study; un-irradiated keratinocytes, one hour drug exposure, colonies counted after eight days; read-out: C50 (concentration of radioprotector that results in 50% clonogenic survival)
In short: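 Mid-log monolayers exposed to test drug for 1 h, then pronase-dispersed and plated; colonies counted after 8 days. For […], irradiation at 0.6 Gy per minute began 30 min after drug addition, with total drug exposure held at 60 min before plating for clonogenic survival.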

[2] = tested on: transformed human keratinocyte cell line (FEP 1811); test: Clonogenic survival cell culture assay for radioprotective activity (12 Gy 137Cs gamma irradiation); type: cell-based; conditions: 12 Gy; for DMF10 (dose modification factor at a concentration of 10 microM of radioprotector): 10 microM radioprotector; for DMFm (dose modification factor at maximum protection): DMF=Dp/Dc at survival level Sm; for PF (protection factor = Sm/So): survival at maximum protection vs irradiation only
In short: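 Survival after irradiation gave protection factor PF = Sm/So (maximum-protection survival over irradiation-only survival). DMF = Dp/Dc is the ratio of doses giving survival Sm with and without radioprotector. DMF10 uses survival at 10 microM radioprotector in place of Sm.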

## CN(C)c1ccc2nc(-c3ccc4nc(-c5ccccn5)[nH]c4c3)[nH]c2c1 [Example 28, 2-(5′-(5″-(Dimethylamino)benzimidazol-2″-yl)benzimidazol-2′-yl)pyridine]
[1]
  IC50: 60.8 µM
[2]
  DMF10 (dose modification factor at a concentration of 10 microM of radioprotector): 1.30
  DMFm (dose modification factor at maximum protection): 1.57
  PF (protection factor = Sm/So): 13.5
other
  melting point: 180 °C (dec.)

## CN(C)C1CCN(c2ccc3nc(-c4ccc5nc(-c6ccccn6)[nH]c5c4)[nH]c3c2)CC1 [Example 29, 2-(5′-(5″-(4′″-(Dimethylamino)piperidin-1′″-yl)benzimidazol-2″-yl)benzimidazol-2′-yl)pyridine]
[1]
  IC50: 46.9 µM
[2]
  DMF10 (dose modification factor at a concentration of 10 microM of radioprotector): 1.54
  DMFm (dose modification factor at maximum protection): 1.76
  PF (protection factor = Sm/So): 18.2
other
  melting point: 198 to 205 °C

## COc1cc(-c2nc3cc(N4CCN(C)CC4)ccc3[nH]2)cc2nc(-c3ccccn3)[nH]c12 [Example 30, 2-(4′-Methoxy-6′-(5″-(4′″-methylpiperazin-1′″-yl)benzimidazol-2″-yl)benzimidazol-2′-yl)pyridine]
[1]
  IC50: 158 µM
[2]
  DMF10 (dose modification factor at a concentration of 10 microM of radioprotector): 1.78
  DMFm (dose modification factor at maximum protection): 1.97
  PF (protection factor = Sm/So): 13.3
other
  melting point: 200 °C (dec.)

## CN1CCN(c2ccc3nc(-c4ccc5cc(-c6ccccn6)[nH]c5c4)[nH]c3c2)CC1 [Example 31, 2-(6′-(5″-(4′″-Methylpiperazin-1′″-yl)benzimidazol-2″-yl)indol-2′-yl)pyridine]
[1]
  IC50: 19.8 µM
[2]
  DMF10 (dose modification factor at a concentration of 10 microM of radioprotector): 2.09
  DMFm (dose modification factor at maximum protection): 2.20
  PF (protection factor = Sm/So): 22.8
other
  melting point: 245 to 247 °C

## COc1cc2nc(-c3ccccn3)[nH]c2cc1-c1nc2ccc(N3CCN(C)CC3)cc2[nH]1 [Example 32, 2-(5′-methoxy-6′-(5″-(4′″-methylpiperazin-1′″-yl)benzimidazol-2″-yl)benzimidazol-2′-yl)pyridine]
[1]
  IC50: 112 µM
[2]
  DMF10 (dose modification factor at a concentration of 10 microM of radioprotector): 1.32
  DMFm (dose modification factor at maximum protection): 1.56
  PF (protection factor = Sm/So): 23.6
other
  melting point: 190 to 195 °C

## COCCN(C)c1ccc2[nH]c(-c3ccc4[nH]c(-c5ccccn5)nc4c3)nc2c1 [Example 38, 2-(5′-(5″-((2′″-Methoxyethyl)(methyl)amino)benzimidazol-2″-yl)benzimidazol-2′-yl)pyridine]
[1]
  IC50: 41.2 µM
[2]
  DMF10 (dose modification factor at a concentration of 10 microM of radioprotector): 1.32
  DMFm (dose modification factor at maximum protection): 1.55
  PF (protection factor = Sm/So): 8.8
other
  melting point: 150 to 155 °C

## COCCOCCNc1ccc2nc(-c3ccc4nc(-c5ccccn5)[nH]c4c3)[nH]c2c1 [Example 39, 2-(5′-(5″-(2′″-(2″″-methoxyethoxy)ethylamino)benzimidazol-2″-yl)benzimidazol-2′-yl)pyridine]
[1]
  IC50: 173 µM
[2]
  DMF10 (dose modification factor at a concentration of 10 microM of radioprotector): 1.50
  DMFm (dose modification factor at maximum protection): 2.70
  PF (protection factor = Sm/So): 171.5
other
  melting point: 183 to 186 °C

## OCCN1CCN(c2ccc3nc(-c4ccc5nc(-c6ccccn6)[nH]c5c4)[nH]c3c2)CC1 [Example 41, 2-(5′-(5″-(4′″-(2″″-hydroxyethyl)piperazin-1′″-yl)benzimidazol-2″-yl)benzimidazol-2′-yl)pyridine]
[1]
  IC50: 90.6 µM
[2]
  DMF10 (dose modification factor at a concentration of 10 microM of radioprotector): 1.44
  DMFm (dose modification factor at maximum protection): 1.95
  PF (protection factor = Sm/So): 19.6
other
  melting point: 218 to 221 °C

## c1ccc(-c2nc3ccc(-c4nc5ccc(NN6CCOCC6)cc5[nH]4)cc3[nH]2)nc1 [Example 42, 2-(5′-(5″-(morpholinoamino)benzimidazol-2″-yl)benzimidazol-2′-yl)pyridine]
[1]
  IC50: 206 µM
[2]
  DMF10 (dose modification factor at a concentration of 10 microM of radioprotector): 1.38
  DMFm (dose modification factor at maximum protection): 1.86
  PF (protection factor = Sm/So): 17.8
other
  melting point: 198 to 205 °C
